According to patent US6613734B2, “Peptides-containing liposomal surfactants” (The Scripps Research Institute, priority 1988, dated 2003):
Values joined by “and” are separate entries in the source; they are usually repeats but may differ in a detail not shown here. Equal entries are not always repeated. Marks after values point to notes of the source that are not given here.

Experiments:
[1] = observation whether peptide/solvent admixture formed a solution or a suspension; format: physicochemical
Protocol: Each polypeptide was admixed with the indicated solvent at a concentration of 2.5 mg of polypeptide per ml of solvent. […] Those admixtures forming a suspension were further admixed by water bath sonication for 10 seconds to form a very fine suspension, sufficient for pipetting using glass pipettes.

[2] = pulsating bubble technique ("bubble assay" of Enhorning, Enhorning Surfactometer); format: physicochemical; conditions: for Pressure Gradient 15″: 15 seconds; for Pressure Gradient 15″ / Pressure Gradient 1′ / Pressure Gradient 5′: peptide 10% by weight of PL, 37° C., negative pressure, mean of 3; for Pressure Gradient 1′: 1 minute; for Pressure Gradient 5′: 5 minutes
Protocol: Measurements of surface pressure across an air-liquid interface (expressed in negative cm of H2O pressure) at minimal (γmin) bubble radius were determined at various times using the pulsating bubble technique described by Enhorning, J. Appl. Physiol. 43: 198-203 (1977).
Briefly, the Enhorning Surfactometer (Surfactometer International, Toronto, Ontario) measures the pressure gradient (ΔP) across a liquid-air interface of a bubble that pulsates at a rate of 20 cycles/min between a maximal (0.55 mm) and minimal (0.4 mm) radius. The bubble, formed in a 37° C., water-enclosed, 20-μl sample chamber, is monitored through a microscopic optic while the pressure changes are recorded on a strip chart recorder calibrated for 0 and −2 cm H2O.
Each of the surfactants identified in Table 5 was assayed for surfactant activity as evidenced by their ability to reduce surface tension in vitro using the “bubble assay” of Enhorning as described above.
After admixture with solvent, each peptide was admixed with phospholipids (PL), DPPC:PG, 3:1, in chloroform in a glass tube so that the amount of polypeptide added equaled one-tenth (10% by. weight) of the amount of PL added, to form a surfactant according to either method A, B or C.
Each of the surfactants was then assayed for surfactant activity as evidenced by their ability to reduce surface tension in vitro in the bubble assay performed as described above. The pressure gradient (ΔP) is a measure of surfactant activity in the polypeptide-PL third admixture which was determined using an Enhorning Surfactometer as described above. Measurements were obtained at time points of 15 seconds (15″), 1 minute (1′) and 5 minutes (5′) and are expressed as a mean of three independent measurements of the indicated polypeptide-PL admixture.

fetal rabbit lung = assay: dynamic compliance, fetal rabbit model; format: in vivo; conditions: single animal per line, 10% peptide to PL, Protocol 4
Protocol: A subject polypeptide was first admixed with solvent as described in Example 3. […]
Surfactant was instilled in rabbit fetal lung by injection into the trachea from a single syringe of the following three components such that the components exit the syringe in the following order: (1) 0.05 ml air; (2) 0.1 ml of a synthetic surfactant prepared in Example 4A or either 2 mg of PL or 2 mg of native surfactant; and (3) 0.1 ml air.
From one syringe, a 0.1 ml aliquot of synthetic surfactant prepared as described in Example 4A (or 2 mg of NS or of PL), was instilled into the rabbit trachea as described above, followed by injection of 0.05 ml lactated Ringer's Solution and 0.2 ml air from a second syringe.
From one syringe, 0.1 ml of a synthetic surfactant prepared as described in Example 4A (or 2 mg of NS or of PL), 0.15 ml air, 0.1 ml saline, and 0.3 ml air were injected into the trachea as described above. Two subsequent aliquots of 0.3 ml air were given.
The surfactant activity of exemplary polypeptides of this invention was studied using the methods described in detail previously by Revak, et al, Am. Rev. Respir. Dis. 134: […] (1986), with the exceptions noted hereinbelow.
Twenty-seven day gestation fetal rabbits were delivered by hysterotomy and immediately injected with 0.05 ml Norcuron (Organon, Inc., N.J.) to prevent spontaneous breathing. The fetal rabbits were then weighed and a small cannula was inserted into the trachea by tracheotomy surfactant prepared as described above was then instilled into the fetal rabbit lung by one of the above instillation protocols.
Following instillation the rabbit was placed in a specially designed plethysmograph (containing a Celesco transducer) connected to a ventilator (Baby Bird, Baby Bird Corp., Palm Springs, Calif.) and the instilled lung was ventilated at a rate of 30 cycles per minute with a peak inspiratory pressure of 25 cm H2O, a positive end expiratory pressure of 4 cm H2O and an inspiratory time of 0.5 seconds. In some studies, dynamic compliance measurements were made at various times throughout the ventilation procedure. In others, static compliance measurements were made following ventilation.
Using the plethysmograph, dynamic compliance measurements were made at various times throughout a 60 minute ventilation period. […] Compliance was calculated by the formula below. [formula]
The above equation was solved with a multiple linear regression for C and R. The compliance (C) represents the elastic nature of the lungs and the resistance (R) represents the pressure necessary to overcome the resistance to the flow of gas into and out of the lungs.

[3] = 2.5 μg of peptide per μl of solvent, solvent H2O
[4] = 2.5 mg of polypeptide per ml of solvent, solvent 75% chloroform 25% methanol

Q: Which “Admixture Formed” value [1, 3] does the source give for VAGGICQCLAERYSV [p41-55] here?
A: Its value is “solution”.

Q: With RLLLLCLLLRLLLLCLLLRLLLLCLLLR [RCL-3] as the substance, how does the “Admixture Formed” value [1, 4] read?
A: The value was “suspension”.

Q: What about the “Pressure Gradient 15″” value ([2]; PL (DPPC:PG 3:1) 10 mg/ml) of the same substance?
A: The value was 0.55 cm of H2O.

Q: What about the “Pressure Gradient 1′” value ([2]; PL (DPPC:PG 3:1) 10 mg/ml) of the same substance?
A: Its value is 0.51 cm of H2O.

Q: What about the “Pressure Gradient 5′” value ([2]; PL (DPPC:PG 3:1) 10 mg/ml) of the same substance?
A: Its value is 0.33 cm of H2O.

Q: For ERYSVILLDTLLGRM [p51-65], which “Admixture Formed” value [1, 3] is on record?
A: Its value is “suspension”.

Q: With VAQVCRVVPLVAGGI [p31-45] as the substance, how does the “Admixture Formed” value [1, 3] read?
A: Its value is “solution”.

Q: What does the source list for RLLLLLLLLRLLLLLLLLRLL [RL8]?
A: Admixture Formed ([1]; 2.5 mg of polypeptide per ml of solvent, solvent 19% chloroform 81% methanol): suspension; Pressure Gradient 15″ ([2]; PL (DPPC:PG 3:1) 10 mg/ml): 0.68 cm of H2O; Pressure Gradient 1′ ([2]; PL (DPPC:PG 3:1) 10 mg/ml): 0.69 cm of H2O; Pressure Gradient 5′ ([2]; PL (DPPC:PG 3:1) 10 mg/ml): 0.19 cm of H2O

Q: With MIPKGALAVAVAQVC [p21-35] as the substance, how does the “Admixture Formed” value ([1]; 2.5 μg of peptide per μl of solvent, solvent Chloroform) read?
A: The value was “suspension”.

Q: Which results are given for ERYSVILLDTLLGRMLPQLVCRLVLRCSMD [p51-80]?
A: Admixture Formed ([1]; 2.5 mg of polypeptide per ml of solvent, solvent 45% chloroform 55% methanol): solution; Dynamic Compliance, 10 minutes after surfactant instillation (fetal rabbit lung): 17 ml air/cm H2O (g body weight × 10^6) and 76 ml air/cm H2O (g body weight × 10^6) and 23 ml air/cm H2O (g body weight × 10^6); Dynamic Compliance, 20 minutes after surfactant instillation (fetal rabbit lung): 41 ml air/cm H2O (g body weight × 10^6) and 94 ml air/cm H2O (g body weight × 10^6) and 71 ml air/cm H2O (g body weight × 10^6); Dynamic Compliance, 30 minutes after surfactant instillation (fetal rabbit lung): 52 ml air/cm H2O (g body weight × 10^6) and 149 ml air/cm H2O (g body weight × 10^6) and 130 ml air/cm H2O (g body weight × 10^6); Dynamic Compliance, 40 minutes after surfactant instillation (fetal rabbit lung): 78 ml air/cm H2O (g body weight × 10^6) and 149 ml air/cm H2O (g body weight × 10^6) and 156 ml air/cm H2O (g body weight × 10^6); Dynamic Compliance, 50 minutes after surfactant instillation (fetal rabbit lung): 99 ml air/cm H2O (g body weight × 10^6) and 217 ml air/cm H2O (g body weight × 10^6) and 182 ml air/cm H2O (g body weight × 10^6); Dynamic Compliance, 60 minutes after surfactant instillation (fetal rabbit lung): 208 ml air/cm H2O (g body weight × 10^6) and 308 ml air/cm H2O (g body weight × 10^6) and 109* ml air/cm H2O (g body weight × 10^6); Pressure Gradient 15″ ([2]; PL (DPPC:PG 3:1) 10 mg/ml): 0.92 cm of H2O; Pressure Gradient 1′ ([2]; PL (DPPC:PG 3:1) 10 mg/ml): 0.89 cm of H2O; Pressure Gradient 5′ ([2]; PL (DPPC:PG 3:1) 10 mg/ml): 0.48 cm of H2O

Q: For RLLLLRLLLLRLLLLRLLLLR [RL4], which “Admixture Formed” value ([1]; 2.5 mg of polypeptide per ml of solvent, solvent 32% chloroform 68% methanoi) is on record?
A: Its value is “solution”.

Q: And the “Pressure Gradient 15″” value ([2]; PL (DPPC:PG 3:1) 4 mg/ml)?
A: Its value is 0.58 cm of H2O.

Q: What about the “Pressure Gradient 1′” value ([2]; PL (DPPC:PG 3:1) 4 mg/ml) of the same substance?
A: Its value is 0.65 cm of H2O.

Q: And the “Pressure Gradient 5′” value ([2]; PL (DPPC:PG 3:1) 4 mg/ml)?
A: The value was 0.33 cm of H2O.

Q: Which “Admixture Formed” value [1, 4] does the source give for ERYSVILLDTLLGRMLPQLVCR [p51-72] here?
A: The value was “suspension”.

Q: And the “Pressure Gradient 15″” value ([2]; PL (DPPC:PG 3:1) 10 mg/ml)?
A: The value was 1.15 cm of H2O.

Q: And the “Pressure Gradient 1′” value ([2]; PL (DPPC:PG 3:1) 10 mg/ml)?
A: The value was 0.76 cm of H2O.

Q: What about the “Pressure Gradient 5′” value ([2]; PL (DPPC:PG 3:1) 10 mg/ml) of the same substance?
A: The value was 0.33 cm of H2O.

Q: Which results are given for “p74-81: eight amino acid residue control peptide, residues 74-81 of SEQ ID NO 12 (SP18), does not conform to the teachings of the invention (VLRCSMDD) [reference compound]”?
A: Admixture Formed [1, 3]: solution; Admixture Formed ([1]; 2.5 mg of polypeptide per ml of solvent, solvent water): solution; Pressure Gradient 15″ ([2]; PL (DPPC:PG 3:1) 4 mg/ml): 2.37 cm of H2O; Pressure Gradient 1′ ([2]; PL (DPPC:PG 3:1) 4 mg/ml): 2.32 cm of H2O; Pressure Gradient 5′ ([2]; PL (DPPC:PG 3:1) 4 mg/ml): 2.31 cm of H2O; surfactant activity compared with the phospholipids alone ([2]; peptide admixed with phospholipids (DPPC:PG 3:1), bubble assay): did not form a PS having a greater activity than the phospholipid alone

Q: With C RLVLRCSMDD (N-terminal Cys) [p71-81] as the substance, how does the “Admixture Formed” value [1, 3] read?
A: Its value is “suspension”.
